Test results published in PMC6748860, “High-resolution crystal structures of a myxobacterial phytochrome at cryo and room temperatures” (Structural Dynamics, 2019).

Legend:
SaBphP2 PCM [1] = molecular target: T1, SaBphP2 PCM (Allostigmatella aurantiaca, UniProt Q09E27); test: X-ray crystal structure ([…] Å, […] K; SFX […] Å, […] K); assay type: binding; settings: covalent (thioether to Cys13); Pr state, dark; chromophore
T1 construct: gene STIAU_8420; photosensory core module PAS-GAF-PHY, residues 1-497, histidine kinase domain removed; homodimer; BV on Cys13
T1 sequence (Q09E27 entry or part of it): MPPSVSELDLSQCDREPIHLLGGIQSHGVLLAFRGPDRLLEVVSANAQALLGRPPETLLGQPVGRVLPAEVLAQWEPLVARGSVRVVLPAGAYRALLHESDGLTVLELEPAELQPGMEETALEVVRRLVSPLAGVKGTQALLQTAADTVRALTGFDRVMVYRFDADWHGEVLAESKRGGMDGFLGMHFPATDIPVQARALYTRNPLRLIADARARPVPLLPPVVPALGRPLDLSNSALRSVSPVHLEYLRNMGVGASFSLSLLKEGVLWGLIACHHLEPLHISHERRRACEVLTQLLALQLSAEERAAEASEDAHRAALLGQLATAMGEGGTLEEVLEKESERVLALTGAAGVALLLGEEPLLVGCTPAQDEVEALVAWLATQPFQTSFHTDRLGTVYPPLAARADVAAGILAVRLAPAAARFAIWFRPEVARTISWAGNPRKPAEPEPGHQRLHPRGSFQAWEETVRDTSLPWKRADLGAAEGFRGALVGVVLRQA

SaBphP2 PCM [2] = molecular target: T2, SaBphP2 PCM (Allostigmatella aurantiaca, UniProt Q09E27, H275T); test: X-ray crystal structure ([…] Å, […] K); assay type: binding; settings: covalent (thioether to Cys13); Pr state, dark; chromophore
T2 construct: gene STIAU_8420; photosensory core module PAS-GAF-PHY, residues 1-497, histidine kinase domain removed; homodimer; BV on Cys13
T2 sequence (Q09E27 entry or part of it H275T): as the sequence (Q09E27 entry or part of it) above, with H275T counted along it

C=CC1=C(C)C(=Cc2[nH]c(C=C3N=C(C=C4NC(=O)C(C)=C4C=C)C(C)=C3CCC(=O)O)c(CCC(=O)O)c2C)NC1=O [biliverdin]
X-ray crystal structure (1.65 Å, 100 K; SFX 2.1 Å, 293 K) (SaBphP2 PCM [1]): The BV chromophore is bound to Cys13 close to the N-terminus | X-ray crystal structure (2.2 Å, 100 K) (SaBphP2 PCM [2]): The cryostructure of the His275Thr mutant is essentially identical to that of the wild-type
